Data reported in patent US20240025906A1 (NEURON23, INC., priority 2022, published 2024).

Molecular target: T1, TYK2 JH2 (Homo sapiens, UniProt P29597)
T1 construct: purchased DiscoverX (KINOMEscan KdELECT service); host or cells: E. coli BL21-derived (T7 phage display) or HEK-293
Assay: TYK2 JH2 binding assay (KINOMEscan KdELECT competitive binding)
Conditions: TYK2 JH2 domain, DiscoverX KINOMEscan KdELECT (Assay A); read-out: Biochemical TYK2_DiscoverX_JH2_BND_Kd
Description: Assay A: TYK2 JH2 Binding Assay
Competitive binding studies using TKY2 JH2-domain fragments were conducted by DiscoverX using the KINOMEscan (KdELECT) platform. Kinase-tagged T7 phage strains were prepared in an E. coli host derived from the BL21 strain. E. coli were grown to log-phase and infected with […] and incubated with shaking at 32° C. until lysis. The lysates were centrifuged and filtered to remove cell debris. The remaining kinases were produced in HEK-293 cells and subsequently tagged with DNA for qPCR detection. Streptavidin-coated magnetic beads were treated with biotinylated small molecule ligands for 30 minutes at room temperature to generate affinity resins for kinase assays. The liganded beads were blocked with excess biotin and washed with blocking buffer (SeaBlock (Pierce), 1% BSA, 0.05% Tween 20, 1 mM DTT) to remove unbound ligand and to reduce non-specific binding. Binding reactions were assembled by combining kinases, liganded affinity beads, and test compounds in 1× binding buffer (20% SeaBlock, 0.17×PBS, 0.05% Tween 20, 6 mM DTT). Test compounds were prepared as 111× stocks in 100% DMSO. Kds were determined using an 11-point 3-fold compound dilution series with three DMSO control points. All compounds for Kd measurements are distributed by acoustic transfer (non-contact dispensing) in 100% DMSO. The compounds were then diluted directly into the assays such that the final concentration of DMSO was 0.9%. All reactions performed in polypropylene 384-well plate. Each was a final volume of 0.02 ml. The assay plates were incubated at room temperature with shaking for 1 hour and the affinity beads were washed with wash buffer (1×PBS, 0.05% Tween 20). The beads were then re-suspended in elution buffer (1×PBS, 0.05% Tween 20, 0.5 μM non-biotinylated affinity ligand) and incubated at room temperature with shaking for 30 minutes. The kinase concentration in the eluates was measured by qPCR.

T1 sequence (P29597 589-875 limits assumed): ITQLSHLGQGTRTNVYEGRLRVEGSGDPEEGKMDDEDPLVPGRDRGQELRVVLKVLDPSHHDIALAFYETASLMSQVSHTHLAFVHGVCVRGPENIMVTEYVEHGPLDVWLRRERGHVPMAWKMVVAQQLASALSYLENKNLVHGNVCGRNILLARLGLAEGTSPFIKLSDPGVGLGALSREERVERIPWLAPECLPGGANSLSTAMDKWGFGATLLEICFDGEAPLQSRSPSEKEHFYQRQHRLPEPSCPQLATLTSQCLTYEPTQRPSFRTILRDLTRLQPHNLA

Row | SMILES | Kd [nM]
1 | CCOC(=O)[C@H]1C[C@@H]1C(=O)Nc1cc2c(-c3nc4cc(OC)ccc4o3)cnc(NC)c2cn1 (racemic) [Example 392, ethyl 2-((5-(5-methoxybenzo[d]oxazol-2-y1)-8-(methylamino)-2,7-naphthyridin-3-yl)carbamoyl)cyclopropane-1-carboxylate] | ≤ 100
2 | CNc1ncc(-c2nc3cc(OCc4ccccc4)ccc3o2)c2cc(Nc3ccc(OCc4ccccc4)cn3)ncc12 [Example 430, 4-(5-(benzyloxy)benzo[d]oxazol-2-yl)-N^6-(5-(benzyloxy)pyridin-2-yl)-N^1-methyl-2,7-naphthyridine-1,6-diamine] | 100 to 1000

Same assay, conditions: TYK2 JH2 domain, KINOMEscan KdELECT (Assay A); read-out: Biochemical TYK2_DiscoverX_JH2_BND_Kd

Row | SMILES | Kd [nM]
3 | CNc1ncc(-c2noc(C)n2)c2cc(NC(=O)C3CC3)ncc12 [Example 837, N-(5-(5-methyl-1,2,4-oxadiazol-3-yl)-8-(methylamino)-2,7-naphthyridin-3-yl)cyclopropanecarboxamide] | ≤ 100
4 | CNc1ncc(-c2cccn3nc(Br)nc23)c2cc(NC(=O)C3CC3)ncc12 [Example 856, N-(5-(2-bromo-[1,2,4]triazolo[1,5-a]pyridin-8-yl)-8-(methylamino)-2,7-naphthyridin-3-yl)cyclopropanecarboxamide] | 100 to 1000
5 | CNc1ncc(C(=O)N2CCCC2)c2cc(NC(=O)C3CC3)ncc12 [Example 840, N-(8-(methylamino)-5-(pyrrolidine-1-carbonyl)-2,7-naphthyridin-3-yl)cyclopropanecarboxamide] | 100 to 1000
6 | CNc1ncc(-c2nnc3n2CCC3)c2cc(NC(=O)C3CC3)ncc12 [Example 854, N-(5-(6,7-dihydro-5H-pyrrolo[2,1-c][1,2,4]triazol-3-yl)-8-(methylamino)-2,7-naphthyridin-3-yl)cyclopropanecarboxamide] | 100 to 1000
7 | CNc1ncc(CCc2cccc(S(C)(=O)=O)c2)c2cc(NC(=O)C3CC3)ncc12 [Example 838, N-(8-(methylamino)-5-(3-(methylsulfonyl)phenethyl)-2,7-naphthyridin-3-yl)cyclopropanecarboxamide] | ≤ 100

Same assay, conditions: TYK2 JH2 domain, KINOMEscan KdELECT (Assay A); read-out: Biochemical TYK2_JH2_Kd

Row | SMILES | Kd [nM]
8 | CNc1ncc(-c2nc3cc(OC)ccc3o2)c2cc(NC(=O)C3CC3)ncc12 [Example 182, N-(5-(5-methoxybenzo[d]oxazol-2-yl)-8-(methylamino)-2,7-naphthyridin-3-yl)cyclopropanecarboxamide] | ≤ 100
9 | CNc1ncc(Oc2ccccn2)c2cc(NC(=O)C3CC3)ncc12 [Example 62, N-(8-(methylamino)-5-(pyridin-2-yloxy)-2,7-naphthyridin-3-yl)cyclopropanecarboxamide] | ≤ 100
10 | CNc1ncc(-n2ccccc2=O)c2cc(NC(=O)C3CC3)ncc12 [Example 61, N-(8-(methylamino)-5-(2-oxopyridin-1(2H)-yl)-2,7-naphthyridin-3-yl)cyclopropanecarboxamide] | 1000 to 10000
11 | CNc1ncc(-c2nc3cccc(F)c3o2)c2cc(NC(=O)C3CC3)ncc12 [Example 185, N-(5-(7-fluorobenzo[d]oxazol-2-yl)-8-(methylamino)-2,7-naphthyridin-3-yl)cyclopropanecarboxamide] | ≤ 100
12 | CNc1ncc(-c2nc3c(F)cccn3n2)c2cc(NC(=O)C3CC3)ncc12 [Example 193, N-(5-(8-fluoro-[1,2,4]triazolo[1,5-a]pyridin-2-yl)-8-(methylamino)-2,7-naphthyridin-3-yl)cyclopropanecarboxamide] | ≤ 100
13 | CNc1ncc(C(N)=O)c2cc(NC(=O)C3CC3)ncc12 [Example 123, 6-(cyclopropanecarboxamido)-1-(methylamino)-2,7-naphthyridine-4-carboxamide] | ≤ 100
14 | CSc1ncc(-c2ccccc2)c2cc(NC(=O)C3CC3)ncc12 [Example 159, N-(8-(methylthio)-5-phenyl-2,7-naphthyridin-3-yl)cyclopropanecarboxamide] | 100 to 1000
15 | CNc1ncc(N2CCCS2(=O)=O)c2cc(NC(=O)C3CC3)ncc12 [Example 58, N-(5-(1,1-dioxidoisothiazolidin-2-yl)-8-(methylamino)-2,7-naphthyridin-3-yl)cyclopropanecarboxamide] | 100 to 1000
16 | CNc1ncc(C(=O)N2CCC(Oc3ccccc3)CC2)c2cc(NC(=O)C3CC3)ncc12 [Example 121, N-(8-(methylamino)-5-(4-phenoxypiperidine-1-carbonyl)-2,7-naphthyridin-3-yl)cyclopropanecarboxamide] | 1000 to 10000
17 | CNc1ncc(-c2nc3cc(N4CC(F)(F)C4)ccn3n2)c2cc(NC(=O)C3CC3)ncc12 [Example 189, N-(5-(7-(3,3-difluoroazetidin-1-yl)-[1,2,4]triazolo[1,5-a]pyridin-2-yl)-8-(methylamino)-2,7-naphthyridin-3-yl)cyclopropanecarboxamide] | ≤ 100
18 | CNc1ncc(C(=O)N2CCCCC2)c2cc(NC(=O)C3CC3)ncc12 [Example 122, N-(8-(methylamino)-5-(piperidine-1-carbonyl)-2,7-naphthyridin-3-yl)cyclopropanecarboxamide] | 100 to 1000
19 | CNc1ncc(-c2nc3cc(N4CCCC(N5CC(F)(F)C5)C4)ccn3n2)c2cc(NC(=O)C3CC3)ncc12 (stereo not drawn) [Example 190, N-(5-(7-(3-(3,3-difluoroazetidin-1-yl)piperidin-1-yl)-[1,2,4]triazolo[1,5-a]pyridin-2-yl)-8-(methylamino)-2,7-naphthyridin-3-yl)cyclopropanecarboxamide] | ≤ 100
20 | CNc1ncc(-c2ccccc2)c2cc(NC3COC3)ncc12 [Example 97, N^1-methyl-N^6-(oxetan-3-yl)-4-phenyl-2,7-naphthyridine-1,6-diamine] | 100 to 1000
21 | CNc1ncc(-c2nc3cccc(F)n3n2)c2cc(NC(=O)C3CC3)ncc12 [Example 192, N-(5-(5-fluoro-[1,2,4]triazolo[1,5-a]pyridin-2-yl)-8-(methylamino)-2,7-naphthyridin-3-yl)cyclopropanecarboxamide] | ≤ 100
22 | CNc1ncc(-c2ccccc2)c2cc(NCc3ccccn3)ncc12 [Example 100, N^1-methyl-4-phenyl-N^6-(pyridin-2-ylmethyl)-2,7-naphthyridine-1,6-diamine] | 1000 to 10000
23 | CNc1ncc(-c2cn(C)c3ncccc23)c2cc(NC(=O)C3CC3)ncc12 [Example 107, N-(5-(1-methyl-1H-pyrrolo[2,3-b]pyridin-3-yl)-8-(methylamino)-2,7-naphthyridin-3-yl)cyclopropanecarboxamide] | ≤ 100
24 | CNc1ncc(-c2nc3cc(F)ccn3n2)c2cc(NC(=O)C3CC3)ncc12 [Example 194, N-(5-(7-fluoro-[1,2,4]triazolo[1,5-a]pyridin-2-yl)-8-(methylamino)-2,7-naphthyridin-3-yl)cyclopropanecarboxamide] | ≤ 100
25 | CNc1ncc(-c2nc3ccc(F)cn3n2)c2cc(NC(=O)C3CC3)ncc12 [Example 191, N-(5-(6-fluoro-[1,2,4]triazolo[1,5-a]pyridin-2-yl)-8-(methylamino)-2,7-naphthyridin-3-yl)cyclopropanecarboxamide] | ≤ 100
26 | CNc1ncc(N2Cc3cnccc3C2=O)c2cc(NC(=O)C3CC3)ncc12 [Example 59, N-(8-(methylamino)-5-(1-oxo-1,3-dihydro-2H-pyrrolo[3,4-c]pyridin-2-yl)-2,7-naphthyridin-3-yl)cyclopropanecarboxamide] | 1000 to 10000
27 | CNc1ncc(-c2ccccc2)c2cc(Nc3ccccc3)ncc12 [Example 102] | 100 to 1000
28 | CNc1ncc(-n2ccc(=O)cc2)c2cc(NC(=O)C3CC3)ncc12 [Example 60, N-(8-(methylamino)-5-(4-oxopyridin-1(4H)-yl)-2,7-naphthyridin-3-yl)cyclopropanecarboxamide] | 100 to 1000
29 | CNc1ncc(-c2ccccc2)c2cc(NCc3ccccc3)ncc12 [Example 99, N^6-benzyl-N^1-methyl-4-phenyl-2,7-naphthyridine-1,6-diamine] | 1000 to 10000
30 | CNc1ncc(-c2cc(-c3ccccc3)ns2)c2cc(NC(=O)C3CC3)ncc12 [Example 146, N-(8-(methylamino)-5-(3-phenylisothiazol-5-yl)-2,7-naphthyridin-3-yl)cyclopropanecarboxamide] | ≤ 100
